The record followed here is article PMC3399898, “Immobilization of β-Galactosidase onto Functionalized Graphene Nano-sheets Using Response Surface Methodology and Its Analytical Applications” (PLoS ONE, 2012).

In this assay the test system is T1, Chick pea β-galactosidase (CpGAL).
T1 construct: native enzyme purified from dry seeds (local market), homogeneous on SDS-PAGE; soluble (free) form
Put plainly: steady-state kinetics, Lineweaver-Burk plot. Type of assay: biochemical, Cicer arietinum. The conditions noted are these: soluble enzyme; optimum pH 2.8, 60 °C printed; pH of the Km assay not stated; read-out: Soluble / ONPG. From the text:
steady-state kinetics, Lineweaver-Burk plot on Chick pea β-galactosidase (CpGAL)

On to `O=[N+]([O-])c1ccccc1O[C@@H]1O[C@H](CO)[C@H](O)[C@H](O)[C@H]1O` [ONPG], for which the Km is 1730 µM.
